The source made the active and inactive calls.
Columns and labels:
Format in all cases: functional
[1] = biological target: T1, Low molecular weight phosphotyrosine protein phosphatase (Homo sapiens, UniProt P24666); details: read-out: IC50_Mean
[2] = biological target: DNA (cytosine-5)-methyltransferase 1 (Homo sapiens, UniProt P26358); test: DNMT1 methyltransferase inhibitors, confirmation, biochemical, fluorescent molecular beacon (AID 602386)
[3] = biological target: T1, Low molecular weight phosphotyrosine protein phosphatase; details: read-out: IC50_Mean; remark: listed apart in the source
[4] = NIH/3T3 fibroblast cytotoxicity, dose response, cytotoxicity control for T. cruzi growth inhibitor project, cell-based, cherry-pick samples, set 2 (AID 651817); details: NIH3T3
[5] = intracellular Trypanosoma cruzi inhibitors in host cells – cell-based, plate reader, cherry-pick samples, set 3, dose response (AID 651818);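 note: compounds incubated with infected cells for about four days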
[6] = HEK293 cell viability, dose response, counter-screen for EBV LMP1 inhibitor project, dry powder, set 2 (AID 624374)
[7] = LMP1-driven NF-kB reporter inhibition, dose response, cell-based, luciferase reporter, luminescence, dry powder, set 2 (AID 624376)
[8] = biological target: Arf-GAP with SH3 domain, ANK repeat and PH domain-containing protein 1 (Homo sapiens, UniProt Q9ULH1);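 note: biochemical fluorescence polarization dose–response screen measuring inhibition of ASAP1; ASAP1 GAP domain stimulating GTP hydrolysis by truncated human ARF1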
Arf-GAP with SH3 domain, ANK repeat and PH domain-containing protein 1, sequence (Q9ULH1 whole entry, the tested form may be a part): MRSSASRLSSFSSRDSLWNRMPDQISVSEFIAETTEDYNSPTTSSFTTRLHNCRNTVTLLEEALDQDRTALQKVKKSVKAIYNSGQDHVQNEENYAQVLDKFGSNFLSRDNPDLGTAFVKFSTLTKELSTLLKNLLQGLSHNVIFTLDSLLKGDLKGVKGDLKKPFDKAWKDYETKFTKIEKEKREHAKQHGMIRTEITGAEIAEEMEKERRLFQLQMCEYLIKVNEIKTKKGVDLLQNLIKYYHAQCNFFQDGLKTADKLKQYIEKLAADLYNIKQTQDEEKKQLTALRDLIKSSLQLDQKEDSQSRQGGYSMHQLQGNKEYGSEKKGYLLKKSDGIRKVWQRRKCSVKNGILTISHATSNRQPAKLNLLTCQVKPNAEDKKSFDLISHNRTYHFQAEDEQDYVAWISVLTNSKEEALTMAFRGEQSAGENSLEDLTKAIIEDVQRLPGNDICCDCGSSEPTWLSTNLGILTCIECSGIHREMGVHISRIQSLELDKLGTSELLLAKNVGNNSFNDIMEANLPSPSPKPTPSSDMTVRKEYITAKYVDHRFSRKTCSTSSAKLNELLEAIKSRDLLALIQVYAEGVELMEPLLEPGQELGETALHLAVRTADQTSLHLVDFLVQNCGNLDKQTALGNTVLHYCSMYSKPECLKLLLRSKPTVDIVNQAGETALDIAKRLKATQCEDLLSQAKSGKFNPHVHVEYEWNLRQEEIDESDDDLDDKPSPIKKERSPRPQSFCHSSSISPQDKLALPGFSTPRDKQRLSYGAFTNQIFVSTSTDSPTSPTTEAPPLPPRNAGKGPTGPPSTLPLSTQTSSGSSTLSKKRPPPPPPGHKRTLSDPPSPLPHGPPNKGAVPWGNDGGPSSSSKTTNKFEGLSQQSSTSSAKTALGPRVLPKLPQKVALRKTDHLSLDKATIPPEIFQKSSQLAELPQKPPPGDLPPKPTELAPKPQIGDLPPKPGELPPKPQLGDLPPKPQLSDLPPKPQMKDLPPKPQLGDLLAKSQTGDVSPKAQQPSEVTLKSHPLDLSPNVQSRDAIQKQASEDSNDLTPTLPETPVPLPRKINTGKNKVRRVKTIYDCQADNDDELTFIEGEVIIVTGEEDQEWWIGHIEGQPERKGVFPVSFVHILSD

T1 sequence (P24666 whole entry): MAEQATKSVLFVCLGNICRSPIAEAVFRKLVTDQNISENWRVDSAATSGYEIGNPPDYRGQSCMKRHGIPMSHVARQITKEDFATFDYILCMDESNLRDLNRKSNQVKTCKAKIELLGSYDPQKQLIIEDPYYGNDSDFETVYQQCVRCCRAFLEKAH
DNA (cytosine-5)-methyltransferase 1, sequence (P26358 whole entry): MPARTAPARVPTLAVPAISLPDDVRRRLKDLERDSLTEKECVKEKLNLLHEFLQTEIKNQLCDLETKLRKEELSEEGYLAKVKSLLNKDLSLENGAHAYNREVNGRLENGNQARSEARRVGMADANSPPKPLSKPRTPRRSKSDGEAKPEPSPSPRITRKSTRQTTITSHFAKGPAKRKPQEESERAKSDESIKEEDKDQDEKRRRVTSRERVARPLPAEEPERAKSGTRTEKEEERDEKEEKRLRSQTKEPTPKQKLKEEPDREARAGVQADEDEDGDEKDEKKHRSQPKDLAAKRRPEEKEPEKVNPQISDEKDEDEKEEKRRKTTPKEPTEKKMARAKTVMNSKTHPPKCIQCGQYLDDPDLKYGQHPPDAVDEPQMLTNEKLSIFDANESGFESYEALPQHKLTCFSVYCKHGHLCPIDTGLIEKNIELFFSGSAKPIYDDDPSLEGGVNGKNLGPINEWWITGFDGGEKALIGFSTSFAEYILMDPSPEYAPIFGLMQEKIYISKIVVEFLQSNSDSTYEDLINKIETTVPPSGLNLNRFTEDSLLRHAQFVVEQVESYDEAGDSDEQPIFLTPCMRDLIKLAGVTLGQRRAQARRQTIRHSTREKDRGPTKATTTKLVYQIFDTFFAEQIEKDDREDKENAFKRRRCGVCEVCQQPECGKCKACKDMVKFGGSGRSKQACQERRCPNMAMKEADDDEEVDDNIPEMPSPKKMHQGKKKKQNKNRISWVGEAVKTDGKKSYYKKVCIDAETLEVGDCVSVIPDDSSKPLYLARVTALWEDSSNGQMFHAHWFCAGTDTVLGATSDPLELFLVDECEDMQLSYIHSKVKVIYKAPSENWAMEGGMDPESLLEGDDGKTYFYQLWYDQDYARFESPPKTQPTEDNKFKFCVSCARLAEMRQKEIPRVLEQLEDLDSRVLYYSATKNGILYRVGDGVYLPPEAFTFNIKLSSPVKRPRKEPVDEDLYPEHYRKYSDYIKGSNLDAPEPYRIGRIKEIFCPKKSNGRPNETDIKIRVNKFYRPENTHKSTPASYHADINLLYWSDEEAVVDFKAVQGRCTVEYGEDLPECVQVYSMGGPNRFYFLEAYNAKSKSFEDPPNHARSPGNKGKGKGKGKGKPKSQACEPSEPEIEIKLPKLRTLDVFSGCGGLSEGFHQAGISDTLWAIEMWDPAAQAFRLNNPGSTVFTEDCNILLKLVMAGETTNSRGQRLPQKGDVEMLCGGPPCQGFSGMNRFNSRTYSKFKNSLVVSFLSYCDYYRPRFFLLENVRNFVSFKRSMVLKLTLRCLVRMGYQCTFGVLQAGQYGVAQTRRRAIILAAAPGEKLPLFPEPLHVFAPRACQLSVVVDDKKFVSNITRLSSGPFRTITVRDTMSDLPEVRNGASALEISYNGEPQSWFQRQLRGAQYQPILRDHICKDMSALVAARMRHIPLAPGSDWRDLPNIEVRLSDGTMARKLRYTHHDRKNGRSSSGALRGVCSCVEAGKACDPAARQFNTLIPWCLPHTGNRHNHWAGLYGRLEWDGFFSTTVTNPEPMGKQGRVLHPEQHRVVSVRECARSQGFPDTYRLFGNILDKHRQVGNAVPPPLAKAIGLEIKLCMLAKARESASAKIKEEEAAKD

Cc1ccc(-c2nn(-c3ccccc3)cc2C=C2SC(=S)N(CCS(=O)(=O)O)C2=O)cc1
IC50 [1]: 10.4 µM (active)
IC50 [2]: 4.93 µM (active)
IC50 [3]: > 80 µM (inactive)

Cc1ccc(S(=O)(=O)Nc2ccc3c(c2)CC(=O)N([C@@H](C)CO)C[C@H](C)[C@@H](CN(C)Cc2ccc(Cl)c(Cl)c2)O3)cc1
AC50 [4]: 8.45 µM (active)
AC50 [5]: 3.89 µM (active)

O=C(Cc1ccccn1)NCC[C@@H]1CC[C@H](NC(=O)Nc2ccc(Cl)cc2)[C@@H](CO)O1
AbsAC35 [6]: 102.52 µM
AbsAC35 [7]: 74.18 µM

O=[N+]([O-])c1ccc(OCCOc2ccccc2/C=N/n2cnnc2)cc1
IC50 [8]: 22.5 µM (inactive)

From ChEMBL document CHEMBL1201862, “PubChem BioAssay data set” (2004)
